Results from US5229378A, “Glycyrrhetic acid derivatives” (Senju Pharmaceutical Co., Ltd., priority 1991, dated 1993).

What was measured:
[1] = system: lipid peroxide (LPO) in rat brain homogenate; assay: Antioxidant activity assay by the method of Stocks (lipid peroxide in brain homogenate, TBA method); type: biochemical, male Wistar rats; conditions: LPO as MDA per mg protein, 37° C., 60 minutes
Procedure: The antioxidant activity of the compound of the invention was assayed by the method of Stocks.
This experiment was performed using male Wistar rats (about 10 weeks old). After perfusion for removal of blood from the brain, the brain tissue was removed and homogenized in 4 volumes of ice-cooled 0.1M phosphate-NaCl buffer (pH 7.4). The homogenate was centrifuged at 1000×g for 10 minutes and the supernatant was taken. The brain homogenate was diluted with 10 volumes of phosphate-NaCl buffer and a 500 μl portion of the dilution was incubated at 37° C. for 60 minutes. The reaction was quenched by pouring the incubate in ice-water and 490 μl of 0.1M phosphate-NaCl buffer was added. The amount of lipid peroxide (LPO) was determined by the TBA method. The amount of LPO was expressed in the amount of malondialdehyde (MDA) per mg protein. The amount of protein was determined by the method of Lowry.

[2] = system: formalin-induced mouse paw edema; assay: Antiinflammatory activity assay, mouse paw edema test (formalin); type: in vivo, male ddy mice; conditions: 200 mg orally, 1 hour before 0.05 ml of 0.75% formalin into right hind paw
Procedure: The antiinflammatory activity of the compound of the invention was assayed by the mouse paw edema test. The experiment was performed in groups of 6 male ddy mice weighting 20 g-25 g. The volume of the right hind paw of each mouse was measured with a plethysmograph and 200 mg of the compound of the invention was orally administered. After 1 hour, 0.05 ml of 0.75% formalin as a phlogistic agent was injected subcutaneously into the dorsum of the right hind paw and the foot volume was measured at timed intervals. The edema rate and the percent inhibition was calculated from the values found. [formula]

Row | SMILES | % Inhibition ([1]; Dosage 1 × 10^-3 M) [%] | % Inhibition ([1]; Dosage 1 × 10^-4 M) [%] | % Inhibition ([2]; Hour 1) [%] | % Inhibition ([2]; Hour 4) [%]
1 | COC(=O)[C@@]1(C)CC[C@]2(C)CC[C@]3(C)C(=CC(=O)[C@@H]4[C@@]5(C)CC[C@H](OP(=O)(O)OC6=C(O)[C@@H]([C@@H](O)CO)OC6=O)C(C)(C)[C@@H]5CC[C@]43C)[C@@H]2C1 [(1), Methyl 3-(L-ascorbyl-2-phosphoryl)-glycyrrhetinate] | 95.3 | 87.6 | 36.36 | 37.84
2 | CC1(C)[C@@H](O)CC[C@]2(C)[C@H]3C(=O)C=C4[C@@H]5C[C@@](C)(C(=O)O)CC[C@]5(C)CC[C@@]4(C)[C@]3(C)CC[C@@H]12 [(6), Glycyrrhetic acid] |  |  | 16.28 | 25.37
3 | CCCCCCOC(=O)[C@@]1(C)CC[C@]2(C)CC[C@]3(C)C(=CC(=O)[C@@H]4[C@@]5(C)CC[C@H](OP(=O)(O)OC6=C(O)[C@@H]([C@@H](O)CO)OC6=O)C(C)(C)[C@@H]5CC[C@]43C)[C@@H]2C1 [(3), Hexyl 3-(L-ascorbyl-2-phosphoryl)-glycyrrhetinate potassium] | 94.8 | 82.5 | 22.50 | 22.07
4 | CCCCCCCCCCCCOC(=O)[C@@]1(C)CC[C@]2(C)CC[C@]3(C)C(=CC(=O)[C@@H]4[C@@]5(C)CC[C@H](OP(=O)(O)OC6=C(O)[C@@H]([C@@H](O)CO)OC6=O)C(C)(C)[C@@H]5CC[C@]43C)[C@@H]2C1 [(4), Lauryl 3-(L-ascorbyl-2-phosphoryl)-glycyrrhetinate potassium] |  |  | 49.03 | 50.57
5 | CCCCCCCCCCCCCCCCCCOC(=O)[C@@]1(C)CC[C@]2(C)CC[C@]3(C)C(=CC(=O)[C@@H]4[C@@]5(C)CC[C@H](OP(=O)(O)OC6=C(O)[C@@H]([C@@H](O)CO)OC6=O)C(C)(C)[C@@H]5CC[C@]43C)[C@@H]2C1 [(5), Stearyl 3-(L-ascorbyl-2-phosphoryl)-glycyrrhetinate potassium] |  |  | 31.02 | 34.42
6 | CCOC(=O)[C@@]1(C)CC[C@]2(C)CC[C@]3(C)C(=CC(=O)[C@@H]4[C@@]5(C)CC[C@H](OP(=O)(O)OC6=C(O)[C@@H]([C@@H](O)CO)OC6=O)C(C)(C)[C@@H]5CC[C@]43C)[C@@H]2C1 [(2), Ethyl 3-(L-ascorbyl-2-phosphoryl)-glycyrrhetinate] | 95.4 | 44.7 | 18.84 | 28.72
